Measured values: ChEMBL document CHEMBL1201862, “PubChem BioAssay data set” (2004)
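1) Cells in 96-well plates. 2) Compound, 48 h, 5 concentrations. 3) Linear interpolation between surrounding doses. 4) Unreached endpoint = highest concentration. At the GI50, growth is halved.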 Calls of active or inactive are those of the source. Rule as the data show it: active = GI50 up to about 1.1 µM and inactive = higher.

Key:
Assay in all cases: inhibition of tumour cell growth, NCI panel, 48 h
[1] = system: A498
[2] = system: HOP-62
[3] = system: HOP-92
[4] = system: HT-29
[5] = system: IGROV-1
[6] = system: K562
[7] = system: M14
[8] = system: MCF7
[9] = system: MDA-MB-231
[10] = system: MDA-N
[11] = system: Malme-3M
[12] = system: NCI-H226
[13] = system: PC-3
[14] = system: SF-539
[15] = system: SK-MEL-2
[16] = system: SR
[17] = system: SW-620
[18] = system: UO-31
[19] = system: CCRF-CEM

Structure (SMILES): COc1ccc(-c2c(C#N)c(N)nc(S)c2C#N)cc1
- GI50 [1]: > 100 µM (inactive)
- GI50 [2]: 55.1 µM (inactive)
- GI50 [3]: 40.6 µM (inactive)
- GI50 [4]: 48.6 µM (inactive)
- GI50 [5]: 24.7 µM (inactive)
- GI50 [6]: 26.5 µM (inactive)
- GI50 [7]: 30 µM (inactive)
- GI50 [8]: 39.2 µM (inactive)
- GI50 [9]: 26.1 µM (inactive)
- GI50 [10]: 11.5 µM (inactive)
- GI50 [11]: 29.9 µM (inactive)
- GI50 [12]: 21.1 µM (inactive)
- GI50 [13]: 27.5 µM (inactive)
- GI50 [14]: 38.9 µM (inactive)
- GI50 [15]: 36.1 µM (inactive)
- GI50 [16]: 18.3 µM (inactive)
- GI50 [17]: 22.2 µM (inactive)
- GI50 [18]: 34.9 µM (inactive)

Structure (SMILES): Cc1nnc2ccccc2c1O
- GI50 [1]: > 100 µM (inactive)
- GI50 [2]: > 100 µM (inactive)
- GI50 [3]: > 100 µM (inactive)
- GI50 [4]: > 100 µM (inactive)
- GI50 [5]: > 100 µM (inactive)
- GI50 [6]: 2.52 µM (inactive)
- GI50 [7]: > 100 µM (inactive)
- GI50 [8]: > 100 µM (inactive)
- GI50 [9]: > 100 µM (inactive)
- GI50 [10]: > 100 µM (inactive)
- GI50 [11]: > 100 µM (inactive)
- GI50 [12]: > 100 µM (inactive)
- GI50 [13]: > 100 µM (inactive)
- GI50 [14]: > 100 µM (inactive)
- GI50 [15]: > 100 µM (inactive)
- GI50 [16]: 25.9 µM (inactive)
- GI50 [17]: > 100 µM (inactive)
- GI50 [18]: > 100 µM (inactive)

Structure (SMILES): CCCCCC(CO)C(O)(C(F)(F)F)C(F)(F)F (configuration not stated)
- GI50 [1]: > 10 µM (inactive)
- GI50 [2]: > 10 µM (inactive)
- GI50 [3]: > 10 µM (inactive)
- GI50 [4]: > 10 µM (inactive)
- GI50 [5]: > 10 µM (inactive)
- GI50 [6]: > 10 µM (inactive)
- GI50 [7]: > 10 µM (inactive)
- GI50 [8]: > 10 µM (inactive)
- GI50 [9]: > 10 µM (inactive)
- GI50 [10]: > 10 µM (inactive)
- GI50 [11]: > 10 µM (inactive)
- GI50 [12]: > 10 µM (inactive)
- GI50 [13]: > 10 µM (inactive)
- GI50 [14]: > 10 µM (inactive)
- GI50 [15]: > 10 µM (inactive)
- GI50 [16]: > 10 µM (inactive)
- GI50 [17]: > 10 µM (inactive)

Structure (SMILES): Cc1ccc(S(=O)(=O)N/N=C2/CC3CCC4CC2CC34)cc1 (configuration not stated)
- GI50 [1]: > 100 µM (inactive)
- GI50 [19]: > 100 µM (inactive)
- GI50 [2]: > 100 µM (inactive)
- GI50 [3]: > 100 µM (inactive)
- GI50 [4]: > 100 µM (inactive)
- GI50 [5]: > 100 µM (inactive)
- GI50 [6]: 93.5 µM (inactive)
- GI50 [7]: > 100 µM (inactive)
- GI50 [8]: > 100 µM (inactive)
- GI50 [9]: > 100 µM (inactive)
- GI50 [10]: > 100 µM (inactive)
- GI50 [11]: > 100 µM (inactive)
- GI50 [12]: > 100 µM (inactive)
- GI50 [13]: > 100 µM (inactive)
- GI50 [14]: > 100 µM (inactive)
- GI50 [15]: > 100 µM (inactive)
- GI50 [16]: > 100 µM (inactive)
- GI50 [17]: > 100 µM (inactive)
- GI50 [18]: 25.4 µM (inactive)

Structure (SMILES): O=C1C(C(O)(C(F)(F)F)C(F)(F)F)CCC1C(O)(C(F)(F)F)C(F)(F)F (configuration not stated)
- GI50 [1]: 0.964 µM (active)
- GI50 [19]: 1.15 µM (inactive)
- GI50 [2]: 0.569 µM (active)
- GI50 [3]: < 0.01 µM (active)
- GI50 [4]: 0.301 µM (active)
- GI50 [5]: 5.48 µM (inactive)
- GI50 [6]: 3.64 µM (inactive)
- GI50 [7]: 8.71 µM (inactive)
- GI50 [8]: 0.174 µM (active)
- GI50 [9]: 0.746 µM (active)
- GI50 [10]: > 36.7 µM (inactive)
- GI50 [11]: 1.06 µM (active)
- GI50 [12]: 0.33 µM (active)
- GI50 [13]: 0.176 µM (active)
- GI50 [14]: 6.82 µM (inactive)
- GI50 [15]: 0.522 µM (active)
- GI50 [16]: 0.215 µM (active)
- GI50 [17]: 5.89 µM (inactive)
- GI50 [18]: 1.09 µM (active)

Structure (SMILES): COc1ccc(OC)c(NC(=O)C(=O)Nn2c(S)nc3ccccc3c2=O)c1
- GI50 [1]: > 100 µM (inactive)
- GI50 [19]: > 100 µM (inactive)
- GI50 [2]: > 100 µM (inactive)
- GI50 [3]: > 100 µM (inactive)
- GI50 [4]: > 100 µM (inactive)
- GI50 [5]: 88.1 µM (inactive)
- GI50 [6]: > 100 µM (inactive)
- GI50 [7]: > 100 µM (inactive)
- GI50 [8]: > 100 µM (inactive)
- GI50 [9]: > 100 µM (inactive)
- GI50 [10]: > 100 µM (inactive)
- GI50 [11]: > 100 µM (inactive)
- GI50 [12]: > 100 µM (inactive)
- GI50 [13]: > 100 µM (inactive)
- GI50 [14]: > 100 µM (inactive)
- GI50 [15]: > 100 µM (inactive)
- GI50 [16]: > 100 µM (inactive)
- GI50 [17]: > 100 µM (inactive)
- GI50 [18]: > 100 µM (inactive)

Structure (SMILES): CCOC(=O)c1nc2ccc(C(F)(F)F)cc2nc1NCc1ccc(OC)cc1
- GI50 [1]: 58.6 µM (inactive)
- GI50 [19]: > 100 µM (inactive)
- GI50 [2]: 98.9 µM (inactive)
- GI50 [3]: 47.5 µM (inactive)
- GI50 [4]: 55.8 µM (inactive)
- GI50 [5]: > 100 µM (inactive)
- GI50 [6]: 39.5 µM (inactive)
- GI50 [7]: > 100 µM (inactive)
- GI50 [8]: 43.2 µM (inactive)
- GI50 [9]: > 100 µM (inactive)
- GI50 [10]: > 100 µM (inactive)
- GI50 [11]: 34.4 µM (inactive)
- GI50 [12]: > 100 µM (inactive)
- GI50 [13]: 56.6 µM (inactive)
- GI50 [14]: > 100 µM (inactive)
- GI50 [15]: 97.9 µM (inactive)
- GI50 [16]: 28.2 µM (inactive)
- GI50 [17]: > 100 µM (inactive)
- GI50 [18]: > 100 µM (inactive)

Structure (SMILES): COC(=O)c1c(C)cccc1C1CN=NC12Cc1ccc(C)cc1C2=O (configuration not stated)
- GI50 [1]: 43.6 µM (inactive)
- GI50 [19]: 32.4 µM (inactive)
- GI50 [2]: 52.7 µM (inactive)
- GI50 [3]: 23.8 µM (inactive)
- GI50 [4]: 31.8 µM (inactive)
- GI50 [5]: 52 µM (inactive)
- GI50 [6]: 29.8 µM (inactive)
- GI50 [7]: 38.8 µM (inactive)
- GI50 [8]: 37.2 µM (inactive)
- GI50 [9]: 47.1 µM (inactive)
- GI50 [10]: 41.4 µM (inactive)
- GI50 [11]: 33.2 µM (inactive)
- GI50 [12]: 44.4 µM (inactive)
- GI50 [13]: 39.2 µM (inactive)
- GI50 [14]: 47 µM (inactive)
- GI50 [16]: 40.2 µM (inactive)
- GI50 [17]: 41 µM (inactive)
- GI50 [18]: 36.1 µM (inactive)

Structure (SMILES): COc1ccc(P2(=S)OCCOP(=S)(c3ccc(OC)cc3)S2)cc1 (configuration not stated)
- GI50 [1]: 2.45 µM (inactive)
- GI50 [19]: 2.97 µM (inactive)
- GI50 [2]: 3.58 µM (inactive)
- GI50 [3]: 10.4 µM (inactive)
- GI50 [4]: 2.64 µM (inactive)
- GI50 [5]: 4.03 µM (inactive)
- GI50 [6]: 2.51 µM (inactive)
- GI50 [7]: 5.14 µM (inactive)
- GI50 [8]: 3.62 µM (inactive)
- GI50 [9]: 3.13 µM (inactive)
- GI50 [10]: 2.29 µM (inactive)
- GI50 [11]: 13.7 µM (inactive)
- GI50 [12]: 5.16 µM (inactive)
- GI50 [13]: 2.26 µM (inactive)
- GI50 [14]: 2.76 µM (inactive)
- GI50 [15]: 3.51 µM (inactive)
- GI50 [16]: 3.6 µM (inactive)
- GI50 [17]: 4.54 µM (inactive)
- GI50 [18]: 0.638 µM (active)

Structure (SMILES): COC(=O)C(NC(=O)CSc1nnc(COc2ccc(Cl)cc2)n1-c1ccccc1)C(C)C (configuration not stated)
- GI50 [1]: 21.2 µM (inactive)
- GI50 [19]: 23.4 µM (inactive)
- GI50 [2]: 18.6 µM (inactive)
- GI50 [3]: 21.6 µM (inactive)
- GI50 [4]: 17 µM (inactive)
- GI50 [5]: 16.3 µM (inactive)
- GI50 [6]: 53.8 µM (inactive)
- GI50 [7]: 21.9 µM (inactive)
- GI50 [8]: 40.7 µM (inactive)
- GI50 [9]: 17.4 µM (inactive)
- GI50 [10]: 16.2 µM (inactive)
- GI50 [11]: 16.5 µM (inactive)
- GI50 [12]: 17 µM (inactive)
- GI50 [13]: 21.7 µM (inactive)
- GI50 [14]: 31.2 µM (inactive)
- GI50 [15]: 18.7 µM (inactive)
- GI50 [16]: 1.08 µM (active)
- GI50 [17]: 56.4 µM (inactive)
- GI50 [18]: 26.7 µM (inactive)

Structure (SMILES): O=C(NC/C(Cl)=C/Cl)Nc1c2ccccc2nc2ccccc12
- GI50 [1]: 67.1 µM (inactive)
- GI50 [2]: > 100 µM (inactive)
- GI50 [3]: 41.6 µM (inactive)
- GI50 [4]: 53.2 µM (inactive)
- GI50 [5]: 35.5 µM (inactive)
- GI50 [7]: 84.5 µM (inactive)
- GI50 [8]: > 100 µM (inactive)
- GI50 [9]: 22 µM (inactive)
- GI50 [10]: > 100 µM (inactive)
- GI50 [11]: > 100 µM (inactive)
- GI50 [12]: 31.8 µM (inactive)
- GI50 [13]: > 100 µM (inactive)
- GI50 [14]: 25.1 µM (inactive)
- GI50 [15]: > 100 µM (inactive)
- GI50 [16]: 20.5 µM (inactive)
- GI50 [17]: > 100 µM (inactive)
- GI50 [18]: > 100 µM (inactive)
